How the values were obtained:
[1] = system: peptide-responsive T cells from post-transplant blood; assay: Flow cytometry immunophenotyping of peptide-responsive T cells (IFNγ, TNFα, CD107a) after 12-day peptide culture and restimulation; type: cell-based, human
Source text: (§1) FIG. 3: Characterisation of GvL T cell responses. a) IFNγ ELISpot results following stimulation of post-transplant PB with GvL peptide+/−antibodies blocking HLA pan-class I (W6/32), pan-class II (Tü39), HLA-DR (L243), -DQ (Tü169) and -DP (B7/21). Negative control without peptide (DMSO). b) Flow cytometry with intracellular cytokine staining showing % T cells positive for IFNγ, TNFα, CD107a after treatment with peptide vs no treatment. […] The generic workflow established in Example 1 was used to identify the antigenic basis of GvL in further patients. In brief, mismatched peptides identified by in silico prediction and mass spectrometry for each patient were screened for their ability to activate donor-derived T cells taken from the patient post-allo-SCT, using IFNγ ELISpot assays. HLA restriction was investigated using IFNγ ELISpots with HLA-blocking antibodies. The nature and frequency of peptide-responsive T cells (i.e. cells producing cytokines (IFNγ, TNFα) and expression of the degranulation marker (CD107a) following peptide contact) were assessed by culturing post-transplant blood with peptide for 12 days and then stimulating with the peptide. Responses were assessed by flow cytometry.

[2] = system: donor-derived T cells taken from the patient post-allo-SCT; assay: IFNγ ELISpot with HLA-blocking antibodies (HLA restriction); type: cell-based, human; settings: for Restricting HLA allele: candidate alleles separated by /
Source text: as §1

[3] = Table 3, post-transplant blood cultured with peptide 12 days, then restimulated
[4] = Table 3, IFNγ ELISpots with HLA-blocking antibodies

What does the source list for “AGTGLASIIAATMARTVYCT (listed as Homo sapiens) [OX747-191]”?
CD4/CD8 responses [1, 3]: Likely CD4; Frequency of response (% IFN* cells amongst CD4+ or CD8+ by FACS) [1, 3]: Not detected; CD4/CD8 responses ([1]; Table 4): Likely CD4; Freq. of response (% IFNγ+ cells amongst CD4+ or CD8+ by FACS) ([1]; Table 4): Not detected; HLA restriction [2, 4]: HLA-DR; Restricting HLA allele ([2]; Table 3): DRB1*04:04:01/DRB1*13:02:01/DRB3*03:01/DRB4*01:03; HLA restriction ([2]; Table 4): HLA-DR

“APISLSSFFNVSTLEREVTD (listed as Homo sapiens) [OX747-185]” was tested. Which CD4/CD8 responses [1, 3] did it give?
The CD4/CD8 responses was “Likely CD4”.

And the “Frequency of response (% IFN* cells amongst CD4+ or CD8+ by FACS)” value [1, 3]?
The value was “Not detected”.

What about the CD4/CD8 responses ([1]; Table 4) of the same sequence?
The CD4/CD8 responses was “Likely CD4”.

And the “Freq. of response (% IFNγ+ cells amongst CD4+ or CD8+ by FACS)” value ([1]; Table 4)?
The value was “Not detected”.

What about the HLA restriction [2, 4] of the same sequence?
The HLA restriction was “HLA-DR”.

What about the “Restricting HLA allele” value ([2]; Table 3) of the same sequence?
Its value is “DRB1*04:04:01/DRB1*13:02:01/DRB3*03:01/DRB4*01:03”.

And the HLA restriction ([2]; Table 4)?
Its HLA restriction is “HLA-DR”.

How did the CD4/CD8 responses [1, 3] turn out when “GQKSPRFRRVSCFLRLGRST (listed as Homo sapiens) [OX802-321]” was run?
The CD4/CD8 responses was “CD4”.

What about the CD4/CD8 responses ([1]; Table 4) of the same sequence?
Its CD4/CD8 responses is “CD4”.

What about the “Freq. of response (% IFNγ+ cells amongst CD4+ or CD8+ by FACS)” value ([1]; Table 4) of the same sequence?
Its value is 5.47%.

For “ITVQTVYVQHLITFLDRPIQ (listed as Homo sapiens) [OX628-80]”, which CD4/CD8 responses [1, 3] is on record?
The CD4/CD8 responses was “CD4”.

And the CD4/CD8 responses ([1]; Table 4)?
Its CD4/CD8 responses is “CD4”.

And the “Freq. of response (% IFNγ+ cells amongst CD4+ or CD8+ by FACS)” value ([1]; Table 4)?
The value was 2.36%.

What about the HLA restriction [2, 4] of the same sequence?
Its HLA restriction is “HLA-DR”.

What about the “Restricting HLA allele” value ([2]; Table 3) of the same sequence?
Its value is “DRB1*03:01/DRB1*15:01/DRB3*01:01/04/DRB5*01:01:01”.

What about the HLA restriction ([2]; Table 4) of the same sequence?
The HLA restriction was “HLA-DR”.

How did the CD4/CD8 responses [1, 3] turn out when “KALLKRLLKGMQKKRPSDVQ (listed as Homo sapiens) [OX993-414]” was run?
Its CD4/CD8 responses is “Likely CD4”.

What about the CD4/CD8 responses ([1]; Table 4) of the same sequence?
Its CD4/CD8 responses is “CD4”.

And the “Freq. of response (% IFNγ+ cells amongst CD4+ or CD8+ by FACS)” value ([1]; Table 4)?
The value was 0.4%.

What about the HLA restriction [2, 4] of the same sequence?
Its HLA restriction is “HLA-DR”.

And the “Restricting HLA allele” value ([2]; Table 3)?
The value was “DRB1*01:01/DRB1*11:01/DRB3*02:02/28/29N”.

What about the HLA restriction ([2]; Table 4) of the same sequence?
Its HLA restriction is “HLA-DR”.

Which results are given for “KVVGARGVGKSAFLQAFLGR (listed as Homo sapiens) [OX813-102]”?
CD4/CD8 responses [1, 3]: Indeterminate; Frequency of response (% IFN* cells amongst CD4+ or CD8+ by FACS) [1, 3]: Not detected; Freq. of response (% IFNγ+ cells amongst CD4+ or CD8+ by FACS) ([1]; Table 4): Not detected; HLA restriction [2, 4]: Indeterminate

What does the source list for “LELGAGTGLASIIAATMART (listed as Homo sapiens) [OX747-190]”?
CD4/CD8 responses [1, 3]: Likely CD4; Frequency of response (% IFN* cells amongst CD4+ or CD8+ by FACS) [1, 3]: Not detected; CD4/CD8 responses ([1]; Table 4): Likely CD4; Freq. of response (% IFNγ+ cells amongst CD4+ or CD8+ by FACS) ([1]; Table 4): Not detected; HLA restriction [2, 4]: HLA-DR; Restricting HLA allele ([2]; Table 3): DRB1*04:04:01/DRB1*13:02:01/DRB3*03:01/DRB4*01:03; HLA restriction ([2]; Table 4): HLA-DR

What does the source list for “LGLIFALTLNRHKYPLNLYL (listed as Homo sapiens) [OX747-158]”?
CD4/CD8 responses [1, 3]: CD4; CD4/CD8 responses ([1]; Table 4): CD4; Freq. of response (% IFNγ+ cells amongst CD4+ or CD8+ by FACS) ([1]; Table 4): 0.45%

How did the CD4/CD8 responses [1, 3] turn out when “LGSLGLIFALTLNRHKYPLN (listed as Homo sapiens) [OX747-157]” was run?
Its CD4/CD8 responses is “CD4”.

What about the CD4/CD8 responses ([1]; Table 4) of the same sequence?
The CD4/CD8 responses was “CD4”.

And the “Freq. of response (% IFNγ+ cells amongst CD4+ or CD8+ by FACS)” value ([1]; Table 4)?
Its value is 0.325%.

How did the CD4/CD8 responses [1, 3] turn out when “PGLISMFSSSQELGAALAQL (listed as Homo sapiens) [OX628-564]” was run?
Its CD4/CD8 responses is “Indeterminate”.

What about the “Frequency of response (% IFN* cells amongst CD4+ or CD8+ by FACS)” value [1, 3] of the same sequence?
Its value is “Not detected”.

And the “Freq. of response (% IFNγ+ cells amongst CD4+ or CD8+ by FACS)” value ([1]; Table 4)?
The value was “Not detected”.

Which results are given for “PLYRQRYQFIKNLVDQHEPK (listed as Homo sapiens) [OX289-074]”?
CD4/CD8 responses [1, 3]: CD4; CD4/CD8 responses ([1]; Table 4): CD4; Freq. of response (% IFNγ+ cells amongst CD4+ or CD8+ by FACS) ([1]; Table 4): 0.24%

For “PPLYRQRYQFIKNLVDQHEP (listed as Homo sapiens) [OX289-073]”, which CD4/CD8 responses [1, 3] is on record?
The CD4/CD8 responses was “CD4”.

And the CD4/CD8 responses ([1]; Table 4)?
The CD4/CD8 responses was “CD4”.

And the “Freq. of response (% IFNγ+ cells amongst CD4+ or CD8+ by FACS)” value ([1]; Table 4)?
The value was 0.36%.

For “RFRRVSCFLRLGRSTLLELE (listed as Homo sapiens) [OX802-322]”, which CD4/CD8 responses [1, 3] is on record?
The CD4/CD8 responses was “CD4”.

And the CD4/CD8 responses ([1]; Table 4)?
Its CD4/CD8 responses is “CD4”.

What about the “Freq. of response (% IFNγ+ cells amongst CD4+ or CD8+ by FACS)” value ([1]; Table 4) of the same sequence?
The value was 3.23%.

Which results are given for “TDRALQNKSISAFLVPMPTP (listed as Homo sapiens) [OX289-205]”?
CD4/CD8 responses [1, 3]: CD4; CD4/CD8 responses ([1]; Table 4): CD4; Freq. of response (% IFNγ+ cells amongst CD4+ or CD8+ by FACS) ([1]; Table 4): 0.89%

“VSRPELLRESISAFLVPMPT (listed as Homo sapiens) [OX289-075]” was tested. Which CD4/CD8 responses [1, 3] did it give?
Its CD4/CD8 responses is “CD4”.

What about the CD4/CD8 responses ([1]; Table 4) of the same sequence?
The CD4/CD8 responses was “CD4”.

What about the “Freq. of response (% IFNγ+ cells amongst CD4+ or CD8+ by FACS)” value ([1]; Table 4) of the same sequence?
The value was 1.33%.

From patent US20250003951A1, “METHOD AND COMPOSITION” (Oxford University Innovation Limited, priority 2021, published 2025)
